Results on one molecule are retold here after patent US5759836A, “Osteoarthritis-associated inducable isoform of nitric oxide synthetase” (priority 1995, dated 1998).

This assay relates to iNOS. The assay can be described thus: iNOS protein expression, Western blot, LPS-treated RAW 264.7 cells. Format: cell-based, murine. Here is the method:
Western Blot Analysis. Equal amounts of protein (50 μg) estimated by BCA reagent (Pierce, Rockford, Ill.) were loaded onto SDS-PAGE gels and stained to verify the concentrations of various protein fractions by examining the intensities of the protein bands on the gels. Western blot analysis was carried out from the same cell extracts. The Western-blotted membrane was probed with a specific anti-iNOS monoclonal antibody, as specified by Transduction Laboratories (Lexington, Ky.). The blots were developed using the ECL Western blot system (Amersham, Arlington Heights, Ill.). Quantitation of the bands was performed using a densitometer from Molecular Dynamics (Sunnyville, Calif.).
The protein expression data are represented as
ND = not done. NS = not significant.
A Western blot analysis of iNOS protein was carried out in cells treated with […] LPS in the presence and absence of NSAIDs for 16-18 h.
Background: Immunoblotting shows a protein as a band on a membrane.

Consider `CC(=O)Oc1ccccc1C(=O)O` [Aspirin, aspirin], for which the “decrease of iNOS expression” value (10 mM, Western blot, 10000 µM) is ~ 70%. Further, the “effect on iNOS expression, Western blot” value (LPS, 16-18 h, indomethacin 5 μM) is “significant decrease in the expression of iNOS”. Besides, the inhibition at 10000 µM (Mus musculus, RAW264.7, read-out: decrease of iNOS expression, 10 mM, Western blot) was 69%. Further, the inhibition at 3000 µM (Mus musculus, RAW264.7, read-out: inhibition of iNOS protein expression, 3 mM, approximate, densitometry) is approximately 53%.
